Legend:
Assay type in all cases: cell-based
[1] = tested on: PR8 4C [A30T] M2 mutant amantadine resistant influenza A virus
[2] = tested on: Influenza B
[3] = tested on: SHIV-1M2 (ion channel sequence of influenza A M2)

In the case of `Cn1cc(-c2cccc3cc(C(=O)NC(=N)N)ccc23)cn1` [BIT225, N-carbamimidoyl-5-(1-methyl-1H-pyrazol-4-yl)-2-naphthamide], the EC50 [1] is reported as ~10 µM, the EC90 [1] is reported as 18 µM and the Comments [2] is reported as “Active”. For the same compound, the “Virus released into the culture supernatant as measured by viral p27 protein” value [3] was “reduced virus released”.

For `NC12CC3CC(CC(C3)C1)C2` [amantadine, reference compound], the “Shift in drug sensitivity caused by the A30T mutation in M2” value [1] was “large shift in drug sensitivity”.

Source: patent publication US10918623B2, “Methods of treating influenza” (Biotron Limited, priority 2017, dated 2021)
